Experimental data from patent US20230097157A1, “Bicyclic Pyridin-2-one and pyrimidin-4-one Derivatives Useful As a Factor XIa Inhibitors” (Janssen Pharmaceutica NV, priority 2021, published 2023).
Like-named read-outs stand apart in the source and are kept apart here.

What was measured:
[1] = target: Factor XIa (Homo sapiens, UniProt P03951); experiment: Factor XIa inhibition assay (FLINT) utilizing a fluorophore-quencher pair peptide substrate 5Fam-[…]-K5Tamra; type: biochemical; conditions: kinetic (KIN) reads, read-out: FXIa KIN Inh IC50
How it was run: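 FXIa was preincubated with compound for 30 min at room temperature in Tris pH 7.5 buffer containing CaCl2, BSA and CHAPS, then reacted with 15 μM quenched 5Fam/Tamra peptide substrate. Fluorescence (485/520 nm) was read kinetically every 5 min for 30 min.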

[2] = target: human plasma kallikrein (Homo sapiens, UniProt P03952); experiment: Kallikrein inhibition assay (FLINT) utilizing a quenched AMC peptide substrate Z-Gly-Pro-Arg-AMC; type: biochemical; conditions: kinetic (KIN) reads, read-out: Kallikrein KIN Inh IC50
How it was run: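 Human plasma kallikrein (2 nM final) pre-incubated 30 min with compound (11-point 3-fold series, top 1 μM, 2% DMSO), then 50 μM Z-Gly-Pro-Arg-AMC added. Buffer 50 mM Tris pH 7.5, 100 mM NaCl, 5 mM CaCl2, BSA, CHAPS. AMC fluorescence (340/440 nm) read kinetically over 30 min at room temperature, IC50 by 4-parameter logistic fit.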

Sequence of Factor XIa (P03951 388-625 limits assumed): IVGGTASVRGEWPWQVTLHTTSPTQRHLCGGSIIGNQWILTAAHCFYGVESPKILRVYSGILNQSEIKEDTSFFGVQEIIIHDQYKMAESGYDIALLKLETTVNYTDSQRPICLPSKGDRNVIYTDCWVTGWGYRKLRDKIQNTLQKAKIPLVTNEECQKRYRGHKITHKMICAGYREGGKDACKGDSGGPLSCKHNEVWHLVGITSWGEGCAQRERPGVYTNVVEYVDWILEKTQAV
Sequence of Factor XIa (P03951 19-387 partner limits assumed): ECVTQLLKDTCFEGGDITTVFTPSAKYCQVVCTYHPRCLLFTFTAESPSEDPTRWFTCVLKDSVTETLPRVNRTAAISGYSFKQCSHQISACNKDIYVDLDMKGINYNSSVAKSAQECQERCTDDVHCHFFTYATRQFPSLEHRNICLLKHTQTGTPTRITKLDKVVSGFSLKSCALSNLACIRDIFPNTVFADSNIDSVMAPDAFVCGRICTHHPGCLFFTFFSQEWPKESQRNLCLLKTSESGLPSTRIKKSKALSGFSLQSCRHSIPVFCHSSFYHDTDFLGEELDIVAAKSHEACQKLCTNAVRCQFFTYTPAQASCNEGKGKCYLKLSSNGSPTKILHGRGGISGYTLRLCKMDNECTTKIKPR
Sequence of human plasma kallikrein (P03952 391-638 limits assumed): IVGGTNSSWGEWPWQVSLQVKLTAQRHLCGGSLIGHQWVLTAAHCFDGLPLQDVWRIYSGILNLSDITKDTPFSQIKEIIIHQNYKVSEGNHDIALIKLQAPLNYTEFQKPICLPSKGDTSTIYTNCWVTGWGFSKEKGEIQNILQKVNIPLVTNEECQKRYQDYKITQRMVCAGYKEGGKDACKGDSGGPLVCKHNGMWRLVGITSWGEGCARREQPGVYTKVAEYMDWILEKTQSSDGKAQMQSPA
Sequence of human plasma kallikrein (P03952 20-390 partner limits assumed): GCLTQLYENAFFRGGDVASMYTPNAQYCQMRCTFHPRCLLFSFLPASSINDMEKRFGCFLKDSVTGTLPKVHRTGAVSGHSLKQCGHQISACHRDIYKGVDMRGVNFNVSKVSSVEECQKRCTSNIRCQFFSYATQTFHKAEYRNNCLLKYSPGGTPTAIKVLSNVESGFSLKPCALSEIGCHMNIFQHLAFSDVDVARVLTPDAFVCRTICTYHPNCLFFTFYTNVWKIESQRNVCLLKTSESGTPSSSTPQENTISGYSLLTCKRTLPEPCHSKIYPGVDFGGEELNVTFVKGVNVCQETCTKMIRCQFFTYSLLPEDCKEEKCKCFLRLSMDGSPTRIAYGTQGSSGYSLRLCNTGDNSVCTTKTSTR

| Compound | IC50 ([1]; values in nM) [nM] | IC50 ([2]; values in nM) [nM] | IC50 ([2]; unit μM) [nM] | IC50 ([1]; unit μM) [nM] |
| --- | --- | --- | --- | --- |
| COC(=O)Nc1ccc(-c2cnc([C@@H]3C[C@@H](C)c4nc(-c5c(-n6cnnn6)ccc(Cl)c5F)cc(=O)n43)[nH]2)cc1 (stereo in doubt) [Example 126, Methyl (4-(2-((6*S,8*R)-2-(3-Chloro-2-fluoro-6-(1H-tetrazol-1-yl)phenyl)-8-methyl-4-oxo-4,6,7,8-tetrahydropyrrolo[1,2-a]pyrimidin-6-yl)-1H-imidazol-5-yl)phenyl)carbamate] | 0.3 | 3.4 |  |  |
| CC(O)c1nccc(-c2cnc([C@@H]3CC4(CC4)c4cc(-c5c(-n6cnnn6)ccc(Cl)c5F)cc(=O)n43)[nH]2)c1F (single isomer, unassigned) [Example 5, (3'S)-7′-(3-Chloro-2-fluoro-6-(1H-tetrazol-1-yl)phenyl)-3′-(5-(3-fluoro-2-(1-hydroxyethyl)pyridin-4-yl)-1H-imidazol-2-yl)-2′,3′-dihydro-5′H-spiro[cyclopropane-1,1′-indolizin]-5′-one] | > 100 |  | > 1000 |  |
| C[C@@H]1C[C@@H](c2ncc(-c3ccnc(CO)c3F)[nH]2)n2c1cc(-c1c(-n3cnnn3)ccc(Cl)c1F)cc2=O (relative stereo) [Example 1, (1R*,3S*)-7-(3-Chloro-2-fluoro-6-(1H-tetrazol-1-yl)phenyl)-3-(5-(3-fluoro-2-(hydroxymethyl)pyridin-4-yl)-1H-imidazol-2-yl)-1-methyl-2,3-dihydroindolizin-5(1H)-one] | 11 | 47 |  |  |
| C[C@@H]1C[C@H](c2ncc(-c3ccc(NC(=O)C4CC4)nc3)[nH]2)n2c1nc(-c1c(-n3cnnn3)ccc(Cl)c1F)cc2=O (stereo in doubt) [Example 120, N-(5-(2-((6*R,8*R)-2-(3-Chloro-2-fluoro-6-(1H-tetrazol-1-yl)phenyl)-8-methyl-4-oxo-4,6,7,8-tetrahydropyrrolo[1,2-a]pyrimidin-6-yl)-1H-imidazol-5-yl)pyridin-2-yl)cyclopropanecarboxamide] | 12.8 | 11.2 |  |  |
| COc1nccc(-c2cnc([C@H]3C[C@H](C)c4nc(-c5c(-n6cnnn6)ccc(Cl)c5F)cc(=O)n43)[nH]2)n1 (relative stereo) [Example 104, (6*R,8*S)-2-(3-Chloro-2-fluoro-6-(1H-tetrazol-1-yl)phenyl)-6-(5-(2-methoxypyrimidin-4-yl)-1H-imidazol-2-yl)-8-methyl-7,8-dihydropyrrolo[1,2-a]pyrimidin-4(6H)-one] | 113 | 115 |  |  |
| Cc1nc(N)ccc1-c1cnc([C@@H]2C[C@@H](C)c3cc(-c4c(-n5cnnn5)ccc(Cl)c4F)cc(=O)n32)[nH]1 [Example 50, (1R,3S)-3-(5-(6-Amino-2-methylpyridin-3-yl)-1H-imidazol-2-yl)-7-(3-chloro-2-fluoro-6-(1H-tetrazol-1-yl)phenyl)-1-methyl-2,3-dihydroindolizin-5(1H)-one] | 1.4 | 16 |  |  |
| C[C@@H]1C[C@H](c2ncc(-c3ccc(N)nc3F)[nH]2)n2c1nc(-c1c(-n3cnnn3)ccc(Cl)c1F)cc2=O (stereo in doubt) [Example 138, (6R*,8R*)-6-(5-(6-Amino-2-fluoropyridin-3-yl)-1H-imidazol-2-yl)-2-(3-chloro-2-fluoro-6-(1H-tetrazol-1-yl)phenyl)-8-methyl-7,8-dihydropyrrolo[1,2-a]pyrimidin-4(6H)-one] | 258 |  | 4300 |  |
| Cc1nc(N)sc1-c1cnc([C@@H]2CC3(CC3)c3nc(-c4c(-n5cnnn5)ccc(Cl)c4F)cc(=O)n32)[nH]1 [Example 131, (S)-6′-(5-(2-Amino-4-methylthiazol-5-yl)-1H-imidazol-2-yl)-2′-(3-chloro-2-fluoro-6-(1H-tetrazol-1-yl)phenyl)-6′,7′-dihydro-4′H-spiro[cyclopropane-1,8′-pyrrolo[1,2-a]pyrimidin]-4′-one] | 92.2 | 669 |  |  |
| C[C@H]1C[C@@H](c2ncc(-c3ncc(N)nc3C(F)(F)F)[nH]2)n2c1nc(-c1c(-n3cnnn3)ccc(Cl)c1F)cc2=O (relative stereo) [Example 83, (6*S,8*S)-6-(5-(5-Amino-3-(trifluoromethyl)pyrazin-2-yl)-1H-imidazol-2-yl)-2-(3-chloro-2-fluoro-6-(1H-tetrazol-1-yl)phenyl)-8-methyl-7,8-dihydropyrrolo[1,2-a]pyrimidin-4(6H)-one] | 56.2 | 377 |  |  |
| C[C@H]1C[C@@H](c2ncc(-c3ccc(N)nc3F)[nH]2)n2c1cc(-c1cc(Cl)ccc1-n1cnnn1)cc2=O (single isomer, unassigned) [Example 36] |  |  | > 10000 | 1500 |
| COC(=O)Nc1ccc(-c2cnc([C@@H]3C[C@H](C)c4cc(-c5c(-n6cnnn6)ccc(Cl)c5F)cc(=O)n43)[nH]2)cc1 [Example 63, Methyl(4-(2-((1S,3S)-7-(3-chloro-2-fluoro-6-(1H-tetrazol-1-yl)phenyl)-1-methyl-5-oxo-1,2,3,5-tetrahydroindolizin-3-yl)-1H-imidazol-5-yl)phenyl)carbamate] | 0.2 | 3.5 |  |  |
| O=c1cc(-c2c(-n3cnnn3)ccc(Cl)c2F)cc2n1[C@H](c1ncc(-c3ccnc(CO)c3F)[nH]1)CC21CC1 [Example 7, (S)-7′-(3-Chloro-2-fluoro-6-(1H-tetrazol-1-yl)phenyl)-3′-(5-(3-fluoro-2-(hydroxymethyl)pyridin-4-yl)-1H-imidazol-2-yl)-2′,3′-dihydro-5′H-spiro[cyclopropane-1,1′-indolizin]-5′-one] | 6.9 | 38 |  |  |
| Cc1cc(-c2cnc([C@H]3C[C@H](C)c4cc(-c5c(-n6cnnn6)ccc(Cl)c5F)cc(=O)n43)[nH]2)ccn1 (stereo in doubt) [Example 42, (1*S,3*R)-7-(3-Chloro-2-fluoro-6-(1H-tetrazol-1-yl)phenyl)-1-methyl-3-(5-(2-methylpyridin-4-yl)-1H-imidazol-2-yl)-2,3-dihydroindolizin-5(1H)-one] | 3.3 | 33 |  |  |
| Nc1ccc(-c2[nH]c(C3CC4(CC4)c4nc(-c5c(-n6cnnn6)ccc(Cl)c5F)cc(=O)n43)nc2F)c(F)n1 (stereo in doubt) [Example 76, (S)-6′-(5-(6-amino-2-fluoropyridin-3-yl)-4-fluoro-1H-imidazol-2-yl)-2′-(3-chloro-2-fluoro-6-(1H-tetrazol-1-yl)phenyl)-6′,7′-dihydro-4′H-spiro[cyclopropane-1,8′-pyrrolo[1,2-a]pyrimidin]-4′-one] | 0.8 | 12.1 |  |  |
| C[C@H]1C[C@@H](c2ncc(-c3ccc(N)nc3F)[nH]2)n2c1nc(-c1c(-n3cnnn3)ccc(Cl)c1F)cc2=O (stereo in doubt) [Example 150, (6S*,8S*)-6-(5-(6-Amino-2-fluoropyridin-3-yl)-1H-imidazol-2-yl)-2-(3-chloro-2-fluoro-6-(1H-tetrazol-1-yl)phenyl)-8-methyl-7,8-dihydropyrrolo[1,2-a]pyrimidin-4(6H)-one] | 0.9 | 25.9 |  |  |
| COC(=O)Nc1ccc(-c2cnc([C@@H]3C[C@@H](C)c4cc(-c5c(-n6cnnn6)ccc(Cl)c5F)cc(=O)n43)[nH]2)cc1 [Example 65, Methyl(4-(2-((1R,3S)-7-(3-chloro-2-fluoro-6-(1H-tetrazol-1-yl)phenyl)-1-methyl-5-oxo-1,2,3,5-tetrahydroindolizin-3-yl)-1H-imidazol-5-yl)phenyl)carbamate] | 0.6 | 1.3 |  |  |
